As a reminder, the IC50 is the midpoint of a concentration-inhibition curve.

For one assay, the target named is Human LDHA (Homo sapiens (Human), UniProt P00338). As to the kind of experiment: human LDHA primary biochemical assay (resazurin/diaphorase coupled, fluorescence). The note with it: LDHA inhibitory activity, activity level based on IC50 (Table 7). The source says:
Test compounds were placed in a Greiner Bio-One (Monroe, N.C.) 1536-well black solid bottom assay plate. 200 millimolar (mM) Tris HCl, pH 7.4, 100 micromolar […] EDTA and 0.01% TWEEN-20™, final concentration, was used as the assay buffer. The LDHA reagent was 2 nanomolar (nM) Human LDHA (Meridian Life Science, Inc., Memphis, Tenn.), final concentration, in assay buffer.
For orientation: Alamar Blue is a resazurin reagent that responds to reducing activity.
Compound `NS(=O)(=O)c1ccc(Cc2cn(-c3nc(C(=O)O)cs3)nc2-c2cccc(-c3cccnc3)c2)cc1` [Compound 522, 2-(3-(3-(pyridin-3-yl)phenyl)-4-(4-sulfamoylbenzyl)-1H-pyrazol-1-yl)thiazole-4-carboxylic acid] registered an IC50 of 0.1 to 1 µM.
The same measure, in the same setting: under `NS(=O)(=O)c1ccc(Cc2c(C3CC3)nn(-c3nc(C(=O)O)cs3)c2-c2cccc(-c3ccc(F)cc3)c2)c(F)c1` [Compound 356] stands 1 to 57 µM.
Compound `Cc1ccc(-c2cc(-c3nn(-c4nc(C(=O)O)cs4)cc3Cc3ccc(S(N)(=O)=O)cc3)ccc2C)cc1C#N` [Compound 496, 2-(3-(3′-cyano-4′,6-dimethyl-[1,1′-biphenyl]-3-yl)-4-(4-sulfamoylbenzyl)-1H-pyrazol-1-yl)thiazole-4-carboxylic acid] returned an IC50 of 0.1 to 1 µM.
Same read-out and setting: then `Cc1ccc(-c2nn(-c3nc(C(=O)O)cs3)cc2Cc2ccc(S(N)(=O)=O)cc2)cc1-c1cccc(N)c1` [Compound 487, 2-(3-(3′-amino-6-methyl-[1,1′-biphenyl]-3-yl)-4-(4-sulfamoylbenzyl)-1H-pyrazol-1-yl)thiazole-4-carboxylic acid], with less than 0.1 µM.
The same measure, in the same setting: then `NS(=O)(=O)c1ccc(Cc2cn(-c3nc(C(=O)O)cs3)nc2-c2ccc(F)c(-c3ccc(F)c(F)c3)c2)cc1` [Compound 517, 2-(4-(4-sulfamoylbenzyl)-3-(3′,4′,6-trifluoro-[1,1′-biphenyl]-3-yl)-1H-pyrazol-1-yl)thiazole-4-carboxylic acid], with 0.1 to 1 µM; and `NS(=O)(=O)c1ccc(Cc2c(-c3ccc(F)c(/C=C/C4CC4)c3)nn(-c3nc(C(=O)O)cs3)c2CC2CC2)cc1F` [Compound 532, (E)-2-(5-(cyclopropylmethyl)-3-(3-(2-cyclopropylvinyl)-4-fluorophenyl)-4-(3-fluoro-4-sulfamoylbenzyl)-1H-pyrazol-1-yl)thiazole-4-carboxylic acid], with less than 0.1 µM.
`Cc1ccc(-c2nn(-c3nc(C(=O)O)cs3)cc2Cc2ccc(S(N)(=O)=O)cc2)cc1-c1ccccc1` [Compound 491, 2-(3-(6-methyl-[1,1′-biphenyl]-3-yl)-4-(4-sulfamoylbenzyl)-1H-pyrazol-1-yl)thiazole-4-carboxylic acid] displayed an IC50 of 0.1 to 1 µM.
On the same count and under the same terms, then `COc1cccc(-c2cc(-c3nn(-c4nc(C(=O)O)cs4)c(C4CC4)c3Cc3ccc(S(N)(=O)=O)cc3)ccc2F)c1` [Compound 483, 2-(5-cyclopropyl-3-(6-fluoro-3′-methoxy-[1,1′-biphenyl]-3-yl)-4-(4-sulfamoylbenzyl)-1H-pyrazol-1-yl)thiazole-4-carboxylic acid], with less than 0.1 µM; and `COc1c(Cc2ccc(S(N)(=O)=O)cc2)c(-c2ccc(F)c(F)c2)nn1-c1nc(C(=O)O)cs1` [Compound 455, 2-(3-(3,4-difluorophenyl)-5-methoxy-4-(4-sulfamoylbenzyl)-1H-pyrazol-1-yl)thiazole-4-carboxylic acid], with 0.1 to 1 µM.
Turning to `CC(C)(C)/C=C/c1cc(-c2nn(-c3nc(C(=O)O)cs3)c(CC3CC3)c2Cc2ccc([S+](N)(=O)[O-])c(F)c2)ccc1F` [Compound 448], the IC50 is less than 0.1 µM.

Still in this assay, the particulars now being: LDHA inhibitory activity, assay of Example 1; activity level classes.
On to `COc1cccc(-c2cccc(-c3nn(-c4nc(C(=O)O)cs4)c(C(F)(F)F)c3Cc3ccc(S(N)(=O)=O)cc3)c2)c1` [Compound 314], for which the IC50 is less than 0.1 µM.
Consider `NS(=O)(=O)c1ccc(Cc2c(-c3ccccc3)nn(-c3nc(C(=O)O)cs3)c2I)cc1` [Compound 45, 2-(5-iodo-3-phenyl-4-(4-sulfamoylbenzyl)-1H-pyrazol-1-yl)thiazole-4-carboxylic acid], for which the IC50 was less than 0.1 µM.
Still for that read-out and setting: under `Nc1c(Cc2ccc(S(N)(=O)=O)cc2)c(-c2ccccc2)nn1-c1nc(CO)cs1` [Compound 131, 4-((5-amino-1-(4-(hydroxymethyl)thiazol-2-yl)-3-phenyl-1H-pyrazol-4-yl)methyl)benzenesulfonamide] stands more than 57 µM.
`C#Cc1c(Cc2ccc(S(N)(=O)=O)cc2)c(-c2ccccc2)nn1-c1nc(C(=O)O)cs1` [Compound 271] displayed an IC50 of 1 to 57 µM.
Still for that read-out and setting: then `NS(=O)(=O)c1ccc(Oc2c(C3CCCC3)nn(-c3nc(C(=O)O)cs3)c2-c2ccccc2)cc1` [Compound 174, 2-(3-cyclopentyl-5-phenyl-4-(4-sulfamoylphenoxy)-1H-pyrazol-1-yl)thiazole-4-carboxylic acid], with 1 to 57 µM; and `O=C(O)c1csc(-n2nc(-c3cccc(N4CCOCC4)c3)cc2O)n1` [Compound 93, 2-(5-hydroxy-3-(3-morpholinophenyl)-1H-pyrazol-1-yl)thiazole-4-carboxylic acid], with more than 57 µM.
Consider `NS(=O)(=O)c1ccc(Cc2c(-c3cccnc3)nn(-c3nc(C(=O)O)cs3)c2O)cc1` [Compound 82, 2-(5-hydroxy-3-(pyridin-3-yl)-4-(4-sulfamoylbenzyl)-1H-pyrazol-1-yl)thiazole-4-carboxylic acid], for which the IC50 lay within 1 to 57 µM.
In turn, `CCOC(=O)c1csc(-n2nc(-c3ccccc3)c(Oc3ccc([S+](N)(=O)[O-])cc3)c2C2CCCCC2)n1` [Compound 274] had an IC50 of more than 57 µM.
As for `NS(=O)(=O)c1ccc(Cc2c(-c3ccccc3)nn(-c3nc(CO)cs3)c2Cc2nnn[nH]2)cc1` [Compound 132, 4-((5-((1H-tetrazol-5-yl)methyl)-1-(4-(hydroxymethyl)thiazol-2-yl)-3-phenyl-1H-pyrazol-4-yl)methyl)benzenesulfonamide], the IC50 is more than 57 µM.
Take `COC(=O)c1csc(-n2nc(-c3ccccc3)c(Cc3ccc(S(N)(=O)=O)cc3)c2Cc2nnn[nH]2)n1` [Compound 133]: the IC50 was more than 57 µM.
In the case of `CNS(=O)(=O)c1cc(-c2cc(O)n(-c3nc(C(=O)O)cs3)n2)ccc1F` [Compound 114, 2-(3-(4-fluoro-3-(N-methylsulfamoyl)phenyl)-5-hydroxy-1H-pyrazol-1-yl)thiazole-4-carboxylic acid], the IC50 was more than 57 µM.

The assay is the same for the next values; noted with them: read-out: Inhibitory activity IC50.
Regarding `CCOc1c(Cc2ccc(S(N)(=O)=O)cc2)c(-c2ccc(F)c(F)c2)nn1-c1nc(C(=O)O)cs1` [Compound 61, 2-(3-(3,4-difluorophenyl)-5-ethoxy-4-(4-sulfamoylbenzyl)-1H-pyrazol-1-yl)thiazole-4-carboxylic acid], the IC50 lay within 0.1 to 1 µM.
In the case of `O=C(O)c1csc(-n2nc(-c3ccc(F)c(F)c3)cc2Cc2nnn[nH]2)n1` [Compound 75, 2-(5-((1H-tetrazol-5-yl)methyl)-3-(3,4-difluorophenyl)-1H-pyrazol-1-yl)thiazole-4-carboxylic acid], the IC50 lay within 1 to 57 µM.
Same read-out and setting: then `CCOC(=O)c1coc(-n2nc(-c3ccccc3)c(Cc3ccc(S(N)(=O)=O)cc3)c2N)n1` [Compound 151, ethyl 2-(5-amino-3-phenyl-4-(4-sulfamoylbenzyl)-1H-pyrazol-1-yl)oxazole-4-carboxylate], with 1 to 57 µM.
Still for that read-out and setting: under `NS(=O)(=O)c1ccc(Cc2cn(-c3nc(C(=O)O)cs3)c3cc(CN4CCOCC4)ccc23)cc1` [Compound 192, 2-(6-(morpholinomethyl)-3-(4-sulfamoylbenzyl)-1H-indol-1-yl)thiazole-4-carboxylic acid] stands 0.1 to 1 µM; under `Cc1ccc(-c2cc(-c3c(Cc4ccc([S+](N)(=O)[O-])c(F)c4)c(CC4CC4)nn3-c3nc(C(=O)O)cs3)ccc2F)cc1` [Compound 287], 1 to 57 µM.
Same read-out and setting: under `NS(=O)(=O)c1ccc(Cc2cn(-c3nc(C(=O)O)cs3)c3cc(C(F)(F)F)ccc23)cc1` [Compound 197, 2-(3-(4-sulfamoylbenzyl)-6-(trifluoromethyl)-1H-indol-1-yl)thiazole-4-carboxylic acid] stands 0.1 to 1 µM.

The record behind these values is patent US10961200B2, “Small molecule inhibitors of lactate dehydrogenase and methods of use thereof” (THE UNITED STATES OF AMERICA, AS REPRESENTED BY THE …, priority 2014, dated 2021).
